The values below come from ChEMBL document CHEMBL3784959, “Cyclophosphamide pharmacokinetics and dose requirements in patients with renal insufficiency” (Kidney Int, 2002).

Data set [1] in a line: Volume of distribution at steady state in patient (6 patients) with hemodialysis-dependent end-stage renal disease at 1.2 +/- 0.4 g/m'2 administered as pulse therapy with 1 hr infusion followed by hemodialysis for 3 hrs started 7 hrs post dose measured during hemodialysis treatment by HPLC analysis. Particulars: human, in vivo, iv, 1.2 g/m'2.
The nature of data set [2]: Volume of distribution at steady state in patient (6 patients) with severe renal insufficiency at 1.1 +/- 0.2 g/m'2 administered as pulse therapy with 1 hr infusion by HPLC analysis. Particulars: human, in vivo, iv, 1.1 g/m'2.
Data set [3] is described as follows: Drug excretion in urine of patient (6 patients) with severe renal insufficiency at 1.1 +/- 0.2 g/m'2 administered as pulse therapy with 1 hr infusion by HPLC analysis. Particulars: human, iv, 1.1 g/m'2.
Data set [4] is described as follows: clinical. Particulars: human, in vivo, iv, 1.4 g/m'2.
Description: Renal clearance in patient (6 patients) with moderate renal insufficiency at 1.4 +/- 0.1 g/m'2 administered as pulse therapy with 1 hr infusion by HPLC analysis
Data set [5] is described as follows: Drug excretion in dialysate of patient (4 patients) with chronic renal failure at 100 mg, iv administered over 10 mins followed by hemodialysis for 4 hrs measured during hemodialysis treatment by GLC analysis. Particulars: human.
Data set [6] in a line: Drug excretion in urine of patient ( 12 patients) with normal renal function at 0.83 +/- 0.05 g/m'2 administered as pulse therapy with 1 hr infusion by HPLC analysis. Particulars: human, iv, 0.83 g/m'2.
A short description of data set [7]: clinical. Particulars: human, in vivo, iv, 1.4 g/m'2. This is another data set of the same source.
Description: Systemic clearance in patient (6 patients) with moderate renal insufficiency at 1.4 +/- 0.1 g/m'2 administered as pulse therapy with 1 hr infusion by HPLC analysis
The nature of data set [8]: Drug recovery in normal human urine.
Data set [9] in a line: clinical. Particulars: human, in vivo, iv, 1.1 g/m'2.
Description: Renal clearance in patient (6 patients) with severe renal insufficiency at 1.1 +/- 0.2 g/m'2 administered as pulse therapy with 1 hr infusion by HPLC analysis
Data set [10] can be described thus: clinical. Particulars: human, in vivo, iv, 1.4 g/m'2. The source holds these as a separate data set.
Description: Elimination half life in patient (6 patients) with moderate renal insufficiency at 1.4 +/- 0.1 g/m'2 administered as pulse therapy with 1 hr infusion by HPLC analysis
Data set [11] can be described thus: clinical. Particulars: human, in vivo, iv, 1.2 g/m'2.
Description: Systemic clearance in patient (6 patients) with hemodialysis-dependent end-stage renal disease at 1.2 +/- 0.4 g/m'2 administered as pulse therapy with 1 hr infusion followed by hemodialysis for 3 hrs started 7 hrs post dose measured during hemodialysis treatment by HPLC analysis
A short description of data set [12]: clinical. Particulars: human, in vivo, iv, 1.1 g/m'2. The source holds these as a separate data set.
Description: Systemic clearance in patient (6 patients) with severe renal insufficiency at 1.1 +/- 0.2 g/m'2 administered as pulse therapy with 1 hr infusion by HPLC analysis
Data set [13] can be described thus: clinical. Particulars: human, in vivo, iv, 0.83 g/m'2.
Description: Renal clearance in patient ( 12 patients) with normal renal function at 0.83 +/- 0.05 g/m'2 administered as pulse therapy with 1 hr infusion by HPLC analysis
Data set [14] can be described thus: clinical. Particulars: human, in vivo, iv, 0.83 g/m'2. This is another data set of the same source.
Description: Elimination half life in patient ( 12 patients) with normal renal function at 0.83 +/- 0.05 g/m'2 administered as pulse therapy with 1 hr infusion by HPLC analysis
Data set [15] in a line: Drug excretion in urine of patient (6 patients) with moderate renal insufficiency at 1.4 +/- 0.1 g/m'2 administered as pulse therapy with 1 hr infusion by HPLC analysis. Particulars: human, iv, 1.4 g/m'2.
Data set [16] can be described thus: clinical. Particulars: human, in vivo, iv, 1.2 g/m'2. The source holds these as a separate data set.
Description: Elimination half life in patient (6 patients) with hemodialysis-dependent end-stage renal disease at 1.2 +/- 0.4 g/m'2 administered as pulse therapy with 1 hr infusion followed by hemodialysis for 3 hrs started 7 hrs post dose measured during hemodialysis treatment by HPLC analysis
Data set [17] in a line: clinical. Particulars: human, in vivo, iv, 0.83 g/m'2. The source holds these as a separate data set.
Description: Volume of distribution at steady state in patient ( 12 patients) with normal renal function at 0.83 +/- 0.05 g/m'2 administered as pulse therapy with 1 hr infusion by HPLC analysis
A short description of data set [18]: Drug excretion in urine of patient (6 patients) with hemodialysis-dependent end-stage renal disease at 1.2 +/- 0.4 g/m'2 administered as pulse therapy with 1 hr infusion followed by hemodialysis for 3 hrs started 7 hrs post dose measured during hemodialysis treatment by HPLC analysis. Particulars: human, iv, 1.2 g/m'2.
A short description of data set [19]: clinical. Particulars: human, in vivo, iv, 0.83 g/m'2. This is another data set of the same source.
Description: Systemic clearance in patient ( 12 patients) with normal renal function at 0.83 +/- 0.05 g/m'2 administered as pulse therapy with 1 hr infusion by HPLC analysis
The nature of data set [20]: clinical. Particulars: human, in vivo, iv, 1.2 g/m'2. The source holds these as a separate data set.
Description: Renal clearance in patient (6 patients) with hemodialysis-dependent end-stage renal disease at 1.2 +/- 0.4 g/m'2 administered as pulse therapy with 1 hr infusion followed by hemodialysis for 3 hrs started 7 hrs post dose measured during hemodialysis treatment by HPLC analysis
Data set [21] in a line: Volume of distribution at steady state in patient (6 patients) with moderate renal insufficiency at 1.4 +/- 0.1 g/m'2 administered as pulse therapy with 1 hr infusion by HPLC analysis. Particulars: human, in vivo, iv, 1.4 g/m'2.
A short description of data set [22]: clinical. Particulars: human, in vivo, iv, 1.1 g/m'2. The source holds these as a separate data set.
Description: Elimination half life in patient (6 patients) with severe renal insufficiency at 1.1 +/- 0.2 g/m'2 administered as pulse therapy with 1 hr infusion by HPLC analysis

Some results are limits rather than exact numbers.

For the compound `O=P1(N(CCCl)CCCl)NCCCO1` (configuration not stated) [CYCLOPHOSPHAMIDE ANHYDROUS], the Vd in [1] is 0.49 L/kg. Also, the Vd at 1 h in data set [2] was determined as 0.36 L/kg; in data set [17] it was 0.49 L/kg; in data set [21], 0.36 L/kg. Besides, the figures for the dose excreted at 1 h in data set [3], in data set [6] and in data set [15] were 5.6%, 19.1% and 5.8%, respectively. Further, the CL renal at 1 h worked out at 3.4 mL/min in [4], 2.4 mL/min in data set [9] and 14.9 mL/min in data set [13]. The compound also returned a dose excreted at 4 h in [5] of 37%. Also, the clearance at 1 h worked out at 57 mL/min in [7], 47 mL/min in data set [12] and 79 mL/min in [19]. Moreover, the dose excreted was not above 25% in data set [8] and 3% in data set [18]. Besides, the half-life at 1 h was 6.4 h in [10], 4.8 h in data set [14] and 7.3 h in [22]. In data set [11], this compound displayed a clearance of 64 mL/min. Besides, the half-life in [16] is 7.3 h. In data set [20], the CL renal at 7 h is 2.1 mL/min.
